Assay results from ChEMBL document CHEMBL1201862, “PubChem BioAssay data set” (2004).
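Values below derive from 48-hour exposures of cells grown in 96-well plates, with endpoints linearly interpolated between the two concentrations bracketing the appropriate inhibition level. GI50 is the concentration that inhibits growth by half.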 Active and inactive are the calls of the source. Rule as the data show it: active = GI50 up to about 1.1 µM and inactive = higher.

Legend:
Assay in all cases: NCI tumour cell line growth inhibition, 48 h
A549 = test system: A549
CCRF-CEM = test system: CCRF-CEM
DU-145 = test system: DU-145
HCT-15 = test system: HCT-15
Hs-578T = test system: Hs-578T
K562 = test system: K562
MDA-MB-231 = test system: MDA-MB-231
NCI-H522 = test system: NCI-H522
OVCAR-3 = test system: OVCAR-3
OVCAR-8 = test system: OVCAR-8
SK-MEL-2 = test system: SK-MEL-2
SK-MEL-5 = test system: SK-MEL-5
SK-OV-3 = test system: SK-OV-3
SNB-75 = test system: SNB-75
SW-620 = test system: SW-620
U-251 = test system: U-251
UACC-257 = test system: UACC-257
UACC-62 = test system: UACC-62

| SMILES | GI50 (A549) | GI50 (CCRF-CEM) | GI50 (DU-145) | GI50 (HCT-15) | GI50 (Hs-578T) | GI50 (K562) | GI50 (MDA-MB-231) | GI50 (NCI-H522) | GI50 (OVCAR-3) | GI50 (OVCAR-8) | GI50 (SK-MEL-2) | GI50 (SK-MEL-5) | GI50 (SK-OV-3) | GI50 (SNB-75) | GI50 (SW-620) | GI50 (U-251) | GI50 (UACC-257) | GI50 (UACC-62) |
| --- | --- | --- | --- | --- | --- | --- | --- | --- | --- | --- | --- | --- | --- | --- | --- | --- | --- | --- |
| Clc1ccc(Nc2nc(Cl)c3nc[nH]c3n2)cc1Cl | 30.1 µM (inactive) | 18.7 µM (inactive) | 28.5 µM (inactive) | 21 µM | 22.1 µM (inactive) | 37.2 µM (inactive) | 21.1 µM (inactive) | 18.7 µM (inactive) | 19.1 µM (inactive) | 35.4 µM (inactive) | 21.8 µM (inactive) | 20.1 µM (inactive) | 33.2 µM (inactive) | 18.8 µM (inactive) | 38 µM (inactive) | 29.1 µM (inactive) | 31.8 µM (inactive) | 33.6 µM (inactive) |
| Clc1ccc(C2NN=C3c4ccccc4OCC32)cc1 (stereo not drawn) | 5.41 µM (inactive) | 4.29 µM (inactive) | 14.9 µM (inactive) | 3.08 µM | 3.2 µM (inactive) | 3.39 µM (inactive) | 2.39 µM (inactive) | 1.5 µM (inactive) | 5.16 µM (inactive) | 3.94 µM (inactive) | 3.48 µM (inactive) | 3.01 µM (inactive) | 5.82 µM (inactive) | 5.53 µM (inactive) | 3.64 µM (inactive) | 4.09 µM (inactive) | 9.46 µM (inactive) | 5.07 µM (inactive) |
| O=c1[nH]c2cc(C(F)(F)F)ccc2nc1CBr | 11 µM (inactive) | 1.04 µM (active) | 14.3 µM (inactive) | 11.4 µM | 22 µM (inactive) | 5.73 µM (inactive) | 13.5 µM (inactive) | 0.36 µM (active) | 9.77 µM (inactive) | 10.4 µM (inactive) | 12.2 µM (inactive) | 9.59 µM (inactive) | 18.5 µM (inactive) | 16.6 µM (inactive) | 9.59 µM (inactive) | 9.48 µM (inactive) | 14.7 µM (inactive) | 9.51 µM (inactive) |
| COc1cc2c(c(O)c1OC)CC1CCC(=O)N1C2c1cccc2ccccc12 (stereo not drawn) | 31.6 µM (inactive) | 30.8 µM (inactive) | 18.5 µM (inactive) | 24.4 µM | 19.7 µM (inactive) | 35.3 µM (inactive) | 16.4 µM (inactive) | 20.3 µM (inactive) | 22.2 µM (inactive) | 20 µM (inactive) | 17.5 µM (inactive) | 13.4 µM (inactive) | 18.9 µM (inactive) | 39 µM (inactive) | 27.7 µM (inactive) | 19.8 µM (inactive) | 23.6 µM (inactive) | 14.2 µM (inactive) |
| COc1cc(N(CCC#N)CCC#N)ccc1/C=C1\SC(=S)NC1=O | > 100 µM (inactive) | > 100 µM (inactive) | > 100 µM (inactive) | > 100 µM | > 100 µM (inactive) | > 100 µM (inactive) | > 100 µM (inactive) | > 100 µM (inactive) | > 100 µM (inactive) | > 100 µM (inactive) | > 100 µM (inactive) | > 100 µM (inactive) | > 100 µM (inactive) | > 100 µM (inactive) | > 100 µM (inactive) | > 100 µM (inactive) | > 100 µM (inactive) | > 100 µM (inactive) |
| C=C1CC(COc2ccc3c(C)c(C)c(=O)oc3c2C)(c2ccccc2)OC1=O (stereo not drawn) | 11.7 µM (inactive) | 0.333 µM (active) | 2.07 µM (inactive) | 1.88 µM | 4.26 µM (inactive) | 0.671 µM (active) | 2.72 µM (inactive) | 1.64 µM (inactive) | 2.88 µM (inactive) | 1.72 µM (inactive) | 2.02 µM (inactive) | 1.59 µM (inactive) | 3.28 µM (inactive) | 2.67 µM (inactive) | 1.22 µM (inactive) | 7.64 µM (inactive) | 0.531 µM (active) | 1.69 µM (inactive) |
| O[C@H]1[C@H]2[C@H](O)C[C@H](CCOCc3ccccc3)CN2C[C@H]1O | > 100 µM (inactive) | > 100 µM (inactive) | > 100 µM (inactive) | > 100 µM | > 100 µM (inactive) | > 100 µM (inactive) | > 100 µM (inactive) | > 100 µM (inactive) | > 100 µM (inactive) | > 100 µM (inactive) | > 100 µM (inactive) | > 100 µM (inactive) | > 100 µM (inactive) | 45.4 µM (inactive) | > 100 µM (inactive) | > 100 µM (inactive) | > 100 µM (inactive) | > 100 µM (inactive) |
| N#CCN(Cc1ccccc1)[C@H]1CCC[C@]1(O)/C=C/c1ccc2c(c1)OCO2 | 38.4 µM (inactive) | 16.4 µM (inactive) | 62.1 µM (inactive) | 22.2 µM | 17.2 µM (inactive) | 24.5 µM (inactive) | 21.4 µM (inactive) | 17 µM (inactive) | 5.41 µM (inactive) | 17.1 µM (inactive) | 20 µM (inactive) | 16.5 µM (inactive) | 46.6 µM (inactive) | 28.4 µM (inactive) | 20.8 µM (inactive) | 19.2 µM (inactive) | 22.7 µM (inactive) | 16.1 µM (inactive) |
| CC(=O)C1=C(C)O[C@@H]2O[C@H](COCc3ccccc3)[C@@H](OCc3ccccc3)[C@H](O)[C@@H]2S1 | 27.8 µM (inactive) | 0.855 µM (active) | 20.8 µM (inactive) | 21.3 µM | 17.9 µM (inactive) | 19.7 µM (inactive) | 20.3 µM (inactive) | 15 µM (inactive) | 15.2 µM (inactive) | 23 µM (inactive) | 20.4 µM (inactive) | 16.5 µM (inactive) | 25.1 µM (inactive) | 23.3 µM (inactive) | 26.7 µM (inactive) | 20.8 µM (inactive) | 18.3 µM (inactive) | 15.5 µM (inactive) |
| COc1ccc(S(=O)(=O)O)cc1NS(=O)(=O)c1ccc(C)cc1 | > 100 µM (inactive) | > 100 µM (inactive) | > 100 µM (inactive) | > 100 µM | > 100 µM (inactive) | > 100 µM (inactive) | > 100 µM (inactive) | > 100 µM (inactive) | > 100 µM (inactive) | > 100 µM (inactive) | > 100 µM (inactive) | > 100 µM (inactive) | > 100 µM (inactive) | > 100 µM (inactive) | > 100 µM (inactive) | > 100 µM (inactive) | > 100 µM (inactive) | > 100 µM (inactive) |
| O=[N+]([O-])c1ccc2nc(Cl)n[n+]([O-])c2c1 | 22 µM (inactive) | 1.06 µM (active) | 17.9 µM (inactive) | 13.4 µM | 37 µM (inactive) | 1.15 µM (inactive) | 11.7 µM (inactive) | 12 µM (inactive) | 7.43 µM (inactive) | 15.2 µM (inactive) | 15.2 µM (inactive) | 6.68 µM (inactive) | 17.5 µM (inactive) | 14.4 µM (inactive) | 12.4 µM (inactive) | 16.6 µM (inactive) | 15.4 µM (inactive) | 14 µM (inactive) |
| CC1CC(N)=Nc2ccccc2N1 (stereo not drawn) | > 100 µM (inactive) | > 100 µM (inactive) | > 100 µM (inactive) | > 100 µM | > 100 µM (inactive) | > 100 µM (inactive) | > 100 µM (inactive) | > 100 µM (inactive) | > 100 µM (inactive) | > 100 µM (inactive) | > 100 µM (inactive) | > 100 µM (inactive) | > 100 µM (inactive) | 30.1 µM (inactive) | > 100 µM (inactive) | > 100 µM (inactive) | > 100 µM (inactive) | > 100 µM (inactive) |
| COc1cc(C2c3cc4c(cc3OC(N3CCNCC3)C2C)OCO4)cc(OC)c1OC (stereo not drawn) | 1.79 µM (inactive) | 0.538 µM (active) | 0.594 µM (active) | 0.893 µM | 0.17 µM (active) | 0.413 µM (active) | 0.403 µM (active) | 0.861 µM (active) | 0.204 µM (active) | 2.93 µM (inactive) | 1 µM (active) | 0.38 µM (active) | 0.476 µM (active) | 0.262 µM (active) | 0.445 µM (active) | 0.675 µM (active) | 3.75 µM (inactive) | 0.516 µM (active) |
| C[C@@H]1O[C@@H](O[C@H]2CC[C@]3(C=O)[C@H]4CC[C@]5(C)[C@@H](C6=CC(=O)OC6)CC[C@]5(O)[C@@H]4CC[C@]3(O)C2)[C@H](O)[C@H](O)[C@H]1O [CONVALLATOXIN] | < 0.01 µM (active) | < 0.01 µM (active) | 6.65e-06 µM (active) | 4.69e-05 µM | < 0.01 µM (active) | 4.92e-05 µM (active) | 0.00013 µM (active) | 9.93e-06 µM (active) | 8.91e-06 µM (active) | 2.94e-05 µM (active) | 7.1e-05 µM (active) | 2.05e-05 µM (active) | 4.37e-05 µM (active) | 4.3e-05 µM (active) | 3.93e-05 µM (active) | 5.58e-05 µM (active) | 6.67e-05 µM (active) | 5.85e-05 µM (active) |
| COc1ccc(-c2oc3c(OC)c(OC)c(OC)c(O)c3c(=O)c2OC)cc1OC | 27.5 µM (inactive) | 16.9 µM (inactive) | 36.2 µM (inactive) | 14 µM | 3.01 µM (inactive) | 10.6 µM (inactive) | 22.2 µM (inactive) | 14.3 µM (inactive) | 22.7 µM (inactive) | 25.4 µM (inactive) | 15.1 µM (inactive) | 9.71 µM (inactive) | 8.2 µM (inactive) | 1.66 µM (inactive) | 20.8 µM (inactive) | 27.7 µM (inactive) | 32.1 µM (inactive) | 21.8 µM (inactive) |
| CC1=CC[C@H](C(C)C)C(C(O)[C@@H](C)O[Si](c2ccccc2)(c2ccccc2)C(C)(C)C)C1=O (stereo partly drawn) | 14.7 µM (inactive) | 19.5 µM (inactive) | 21.4 µM (inactive) | 13.9 µM | 28 µM (inactive) | 9.93 µM (inactive) | 15.5 µM (inactive) | 16.5 µM (inactive) | 17 µM (inactive) | 22.8 µM (inactive) | 15.1 µM (inactive) | 16.2 µM (inactive) | 28.5 µM (inactive) | 23 µM (inactive) | 18.9 µM (inactive) | 15.8 µM (inactive) | 12.1 µM (inactive) | 14.8 µM (inactive) |
